Data as given in patent US12448369B2 (Edgewise Therapeutics, Inc., priority 2023, dated 2025).

Key:
[1] = system: Rabbit Psoas myofibrils (skeletal myosin ATPase); experiment: Myofibril ATPase assay, rabbit psoas (skeletal) myofibrils; assay type: biochemical; settings: rabbit psoas myofibrils
Summary of the method: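 Rabbit psoas skeletal myofibrils in PIPES/CaCl2/EGTA pCa buffer, pH 7.0. ATPase rate followed by PK-LDH-coupled NADH loss at 340 nm, read every 1.5–2 min for 75 min. Slopes normalized to vehicle (100%) and fitted to a 4-parameter logistic; values are Y75 (25% inhibition) or Y125 (25% activation) concentrations.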

[2] = target: T1, Porcine ventricle myofibrils (ventricular myosin ATPase) (Sus scrofa, UniProt P79293); experiment: Myofibril ATPase assay, porcine ventricle myofibrils; assay type: biochemical, porcine (Yucatan minipigs); settings: porcine ventricle myofibrils
T1 construct: Myofibrils from porcine cardiac muscle was isolated from the left ventricle of Yucatan minipigs; tissue Exemplar Genetics; host or cells: left ventricle of Yucatan minipigs, myofibrils prepared in house
Summary of the method: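 Myofibrils isolated from Yucatan minipig left ventricle; coupled PK/LDH NADH assay, pCa buffer pH 7.0, kinetic A340 reads over 75 min. Vehicle-normalized slopes fit 4PL; Y75/Y125 derived.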

[3] = system: Porcine atria myofibrils (atrial myosin ATPase); experiment: Myofibril ATPase assay, porcine atria myofibrils; assay type: biochemical; settings: porcine atria myofibrils
Summary of the method: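 Coupled PK-LDH reaction links ADP from myosin ATPase to NADH loss, read at 340 nm every 1.5-2 min for 75 min. Slopes (mAU/min) normalized to vehicle-only wells (100%) and fit to a 4-parameter logistic; Y75 is the concentration cutting activity by 25%, Y125 is reported for activators.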

[4] = Y75 value (75% activity relative to no compound)

T1 sequence (P79293 whole entry): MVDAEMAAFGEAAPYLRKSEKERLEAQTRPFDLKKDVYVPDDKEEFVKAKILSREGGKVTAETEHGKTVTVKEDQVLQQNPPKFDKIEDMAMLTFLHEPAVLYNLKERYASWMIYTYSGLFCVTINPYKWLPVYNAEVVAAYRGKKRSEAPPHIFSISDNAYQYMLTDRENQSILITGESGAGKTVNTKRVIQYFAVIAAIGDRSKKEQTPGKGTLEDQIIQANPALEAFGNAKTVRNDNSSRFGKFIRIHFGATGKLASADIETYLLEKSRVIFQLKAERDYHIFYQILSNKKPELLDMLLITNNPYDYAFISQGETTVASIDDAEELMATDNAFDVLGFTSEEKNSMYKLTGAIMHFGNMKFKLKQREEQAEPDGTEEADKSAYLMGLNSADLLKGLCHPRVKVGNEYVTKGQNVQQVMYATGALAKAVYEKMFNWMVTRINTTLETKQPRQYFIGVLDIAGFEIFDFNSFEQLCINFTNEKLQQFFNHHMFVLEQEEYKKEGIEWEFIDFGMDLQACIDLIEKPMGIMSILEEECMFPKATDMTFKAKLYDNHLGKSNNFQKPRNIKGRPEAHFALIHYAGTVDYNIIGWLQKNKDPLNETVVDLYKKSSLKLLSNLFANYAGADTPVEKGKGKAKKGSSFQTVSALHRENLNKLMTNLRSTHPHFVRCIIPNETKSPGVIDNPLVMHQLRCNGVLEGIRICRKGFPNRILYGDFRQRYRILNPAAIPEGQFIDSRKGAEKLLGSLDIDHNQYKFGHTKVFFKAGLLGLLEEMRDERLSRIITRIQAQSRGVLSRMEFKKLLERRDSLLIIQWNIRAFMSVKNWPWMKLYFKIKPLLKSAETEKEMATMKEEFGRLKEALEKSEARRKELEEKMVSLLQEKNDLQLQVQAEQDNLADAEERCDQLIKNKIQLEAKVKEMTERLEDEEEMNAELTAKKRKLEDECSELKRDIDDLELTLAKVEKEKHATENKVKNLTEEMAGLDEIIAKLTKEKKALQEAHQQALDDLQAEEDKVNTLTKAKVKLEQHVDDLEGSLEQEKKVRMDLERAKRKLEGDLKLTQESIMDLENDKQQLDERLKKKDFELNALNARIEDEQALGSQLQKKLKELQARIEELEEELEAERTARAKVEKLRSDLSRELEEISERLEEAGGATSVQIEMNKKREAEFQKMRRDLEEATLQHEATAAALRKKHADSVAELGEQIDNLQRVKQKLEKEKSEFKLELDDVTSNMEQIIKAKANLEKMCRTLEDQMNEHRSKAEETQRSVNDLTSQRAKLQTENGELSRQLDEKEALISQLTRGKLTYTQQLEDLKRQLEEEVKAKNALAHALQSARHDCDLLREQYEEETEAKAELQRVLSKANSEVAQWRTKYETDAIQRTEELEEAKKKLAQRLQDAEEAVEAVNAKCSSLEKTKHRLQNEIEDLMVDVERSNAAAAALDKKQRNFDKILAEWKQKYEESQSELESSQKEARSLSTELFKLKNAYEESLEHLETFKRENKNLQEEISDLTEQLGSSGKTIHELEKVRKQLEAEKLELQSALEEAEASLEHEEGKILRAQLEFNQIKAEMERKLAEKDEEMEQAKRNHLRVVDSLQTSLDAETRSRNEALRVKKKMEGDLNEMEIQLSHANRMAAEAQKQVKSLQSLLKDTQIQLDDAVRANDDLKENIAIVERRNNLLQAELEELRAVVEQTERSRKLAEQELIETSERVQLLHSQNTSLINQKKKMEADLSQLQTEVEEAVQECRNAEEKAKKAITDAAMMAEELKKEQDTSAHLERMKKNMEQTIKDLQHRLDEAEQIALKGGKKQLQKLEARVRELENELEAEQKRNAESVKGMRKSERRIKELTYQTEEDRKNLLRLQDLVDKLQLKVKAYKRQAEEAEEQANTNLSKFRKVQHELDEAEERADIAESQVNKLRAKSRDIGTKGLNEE

Row | SMILES | Skeletal EC25 ([1]; Y75 value (no ‡ mark)) [µM] | Ventricular EC25 ([2]; Y75 value (no ‡ mark)) [µM] | Atrial EC25 ([3]; Y75 value (no ‡ mark)) [µM] | Skeletal EC25 ([1]; Y75 value) [µM] | Ventricular EC25 ([2]; Y75 value) [µM] | Atrial EC25 [3, 4] [µM]
1 | C[C@H](NC(=O)Cc1cc2c(C#N)c(O)ccc2[nH]c1=O)c1ccc(F)cc1F [compound 82] | 100.00 | 100.00 | 100.00 |  |  | 
2 | Cc1nccc2[nH]c(=O)c(CC(=O)N[C@H](CO)c3ccncc3)c(C)c12 [compound 292] |  |  |  | 100.00 | 100.00 | 100.00
3 | Cc1c(CC(=O)N[C@H](C)c2ncc(C#N)cc2F)c(=O)[nH]c2ccnc(C#N)c12 (single isomer, unassigned) [compound 284] |  |  |  | 0.49 | 10.63 | 4.56
4 | Cc1c(C(F)(F)C(=O)N[C@H](C)c2ncc(C#N)cc2F)c(=O)[nH]c2cccc(F)c12 (single isomer, unassigned) [compound 2538] | 0.11 | 0.18 | 0.17 |  |  | 
5 | Cc1c(CC(=O)N[C@@H](CO)c2ccc(C#N)cc2F)c(=O)[nH]c2ccnc(C(F)(F)F)c12 (single isomer, unassigned) [compound 225] |  |  |  | 0.03 | 2.46 | 0.08
6 | Cc1nc(C#N)cnc1[C@@H](C)NC(=O)Cc1c(C)c2c(C#N)c(F)ccc2[nH]c1=O (single isomer, unassigned) [compound 1] | 0.11 | 0.14 | 0.07 |  |  | 
7 | C[C@H](NC(=O)C(F)(F)c1cc2c(C#N)c(F)ccc2[nH]c1=O)c1ncc(C#N)cc1F (single isomer, unassigned) [Compound 2530] | 0.08 | 0.21 | 0.20 |  |  | 
8 | COc1cccc([C@@H](C)NC(=O)Cc2c(C)c3c(C)nccc3[nH]c2=O)n1 (single isomer, unassigned) [compound 309] |  |  |  | 100.00 | 100.00 | 100.00
9 | Cc1c(CC(=O)N[C@H](C)c2ccc(C#N)nn2)c(=O)[nH]c2ccc(F)c(F)c12 [compound 1133] | 0.04 | 0.14 | 0.09 |  |  | 
10 | Cc1cccc([C@H](C)NC(=O)Cc2c(C)c3c(C)nccc3[nH]c2=O)c1 (single isomer, unassigned) [compound 340] |  |  |  | 100.00 | 100.00 | 36.97
11 | Cc1nccc2[nH]c(=O)c(CC(=O)N[C@@H](C)c3ccc(O)nc3)c(C)c12 (single isomer, unassigned) [compound 296] |  |  |  | 100.00 | 100.00 | 88.12
12 | Cc1ccc2[nH]c(=O)c(CC(=O)N[C@@H](C)c3ncc(C#N)cc3F)cc2n1 [compound 463] |  |  |  | 9.72 | 26.99 | 4.39
13 | C[C@H](NC(=O)[C@H](C)c1c(C(F)(F)F)c2cc(F)ccc2[nH]c1=O)c1ccc(F)cc1F (single isomer, unassigned) [compound 100] | 0.04 | 0.69 | 0.06 |  |  | 
14 | COc1cccc([C@H](C)NC(=O)Cc2c(C)c3c(C)nccc3[nH]c2=O)c1 (single isomer, unassigned) [compound 315] |  |  |  | 100.00 | 100.00 | 100.00
15 | Cc1nc([C@H](C)NC(=O)Cc2c(C)c3c(C)nccc3[nH]c2=O)ncc1C#N [compound 479] |  |  |  | 100.00 | 100.00 | 100.00
16 | N#Cc1cnc2c(n1)CC[C@H]2NC(=O)Cc1cc2cc(F)c(F)cc2[nH]c1=O [compound 1082] | 100.00 | 100.00 | 100.00 |  |  | 
17 | Cc1nccc2[nH]c(=O)c(CC(=O)N[C@@H](C)c3ccc(F)cc3F)c(F)c12 [compound 150] |  |  |  | 0.09 | 0.68 | 0.06
